Consider 5 compounds from publication PMC9715946, “Bioenhancing effects of piperine and curcumin on triterpenoid pharmacokinetics and neurodegenerative metabolomes from Centella asiatica extract in beagle dogs” (Scientific Reports, 2022).

For data set [1] the following is noted: in combination with 100 mg/kg of curcumin; cited from earlier work.
Details of data set [2]: method as in PMID 19934593. The note with it: pre-treatment with curcumin 60 mg/kg; cited from earlier work.
A short description of data set [3]: Pharmacokinetic study: plasma triterpenoids by LCMS, non-compartmental analysis. Set-up: species or system beagle dogs. The note with it: dog, in vivo; for Tmax: 20 mg/kg. The source says:
The proposed animal experiment was approved by the Institutional Animal Care and Use Committee of the Chulalongkorn University Laboratory Animal Centre (CULAC), Chulalongkorn University, Bangkok, Thailand (Protocol number 2073029, Approval date: […] The dogs were fed with a normal dog diet (Beauty Pro, Nippon Pet Food Co. Ltd.) once a day and water ad libitum. Two groups of four dogs were randomly used with a 2-week washout period. […] After receiving the test substances, the dogs were transferred to a metabolic cage for 48 h for the collection of urine and faeces. All animal procedures were performed in accordance with the ethical principles, regulations, and guidelines for the use of animals (National Research Council of Thailand, 2015). This study was conducted in compliance with the ARRIVE guidelines. Four experimental groups received the oral test compound once daily for seven consecutive days, as follows: ([…] 20 […] 20 mg/kg + piperine 20 mg/kg; ([…] 20 mg/kg + curcumin 20 mg/kg; and (iv) […] 20 mg/kg + piperine 20 mg/kg + curcumin 20 mg/kg. The test substance powders received from the suppliers were packed into gelatine capsule, and the dogs were orally administered two to four capsules in the morning, according to the number of test substances required in the experimental plan. Blood samples (2-3 mL) were withdrawn from the cephalic or saphenous vein using an IV catheter and placed in heparinised tubes. […] The pre-dose and 24 h post-dose blood chemistry parameters were determined by the Small Animal Hospital, Faculty of Veterinary Science, Chulalongkorn University for all dogs, in order to monitor the health status of the dogs. […] All biological samples were kept at - 80 °C until required for analysis. Where the concentration of the samples exceeded the linear calibration curve, blank matrices were used to dilute the sample before protein precipitation. Methanol was used to extract the major triterpenoids from the biological samples for LCMS analysis. In brief, 50 μL of the biological sample was added to 200 μL methanol containing glycyrrhizin and glycyrrhetinic acid as internal standards. The mixture was then centrifuged at 12,000g for 10 min at 4 °C to collect the supernatant, and 10 μL of the supernatant was injected into the LCMS system to measure the concentration of the targeted analytes. […] A Synergi Fusion-RP C18 column (Phenomenex Inc.) was selected as the stationary phase and maintained at 40 °C in the column oven. […] The lower limit of quantification (LLOQ) of each of the compounds in this study ranged from 1.00 to 10.00 μg/L, according to the compound. After oral administration, pharmacokinetic parameters were determined by PK solution software version 2.0 (Submit Research Services, USA.) using non-compartmental analysis. The maximum plasma concentration (Cmax) and time to reach maximum plasma concentration (Tmax) were calculated directly from the concentration-time curves. The area under the curve from time 0-24 h (AUC0-24) was determined by the trapezoidal method and extrapolated to time infinity by the equation AUC0-inf = AUC0-24 + (Clast/kel), where Clast is the last measurable plasma concentration and kel is the elimination rate constant. The rate of […] was equal to - 2.303 × slope. The mean residence time (MRT) was calculated as AUMC0-inf/AUC0-inf, where AUMC0-inf is the area under the first moment curve. The volume of distribution (Vd) was equivalent to dose/C0, where C0 is the concentration of drug measured in plasma at time zero. The total clearance (CL) was equal to dose/AUC0-inf, and the elimination half-life was determined by 0.693/kel. […] The difference in blood chemistry parameters pre-dose and post-dose was compared using Student's t test. SPSS version 22.0 (IBM Corp.) was used to determine statistically significant differences between the experimental groups. […]

The conditions of data set [4]: piperine in combination, self-emulsifying drug delivery systems; cited from earlier work.

Take `CC(=O)O[C@@]12CO[C@@H]1C[C@H](O)[C@@]1(C)C(=O)[C@H](O)C3=C(C)[C@@H](OC(=O)[C@H](O)[C@@H](NC(=O)OC(C)(C)C)c4ccccc4)C[C@@](O)([C@@H](OC(=O)c4ccccc4)[C@H]21)C3(C)C` [docetaxel]: in data set [1], the “Increase of bioavailability compared to the control group” value is on record as “approximately eight-fold”.
Take `CCn1cc(C(=O)O)c(=O)c2cc(F)c(N3CCNCC3)cc21` [norfloxacin]: the “Increase of AUC compared with the control group” value in data set [2] was “approximately two-fold”.
Take madecassoside: in data set [3], the “Increase of systemic exposure (Cmax and AUC) by Centell-S + piperine compared to Centell-S alone” value is 1.5 to 3.0 fold; the “Time to reach maximum plasma concentration” value lay within 2 to 4 h. The “Time to reach maximum plasma concentration” value in data set [3] (po) is 1 to 2 h.
In the case of `C[C@H]1[C@H](C)CC[C@]2(C(=O)O)CC[C@]3(C)C(=CC[C@@H]4[C@@]5(C)C[C@@H](O)[C@H](O)[C@@](C)(CO)[C@@H]5CC[C@]43C)[C@H]12` [Asiatic acid, asiatic acid], in data set [3] (male, beagle), the “Increase of systemic exposure (Cmax and AUC) by Centell-S + piperine compared to Centell-S alone” value was in the range of 1.5 to 3.0 fold. In data set [3] (male, beagle, 7 days), the Accumulation ratio is given as 1.05–1.44. In addition, the Tmax in data set [3] (male, beagle, po, Time to reach maximum plasma concentration) is 2 to 4 h; in data set [3] (male, beagle, po, Tmax) it was 2 h.
Turning to `C=C(C)[C@@H]1CCC(C)=C[C@H]1c1c(O)cc(CCCCC)cc1O` [cannabidiol], the “Improvement of oral bioavailability compared to the control group” value in data set [4] is “approximately 2.5 fold”.

The term Tmax denotes the time at which the peak concentration occurs.
